Data taken from patent US20100010025A1, “Pyrimidine Derivatives” (Norvartis AG, priority 2006, published 2010).

What was measured:
JAK-2 = target: T1, JAK-2 (Homo sapiens, UniProt O60674); assay: JAK kinase assay (JAK-2), time-resolved fluorescence energy transfer or radiometric filter-binding/flash plate; format: biochemical; details: GST fusion of JAK-2 kinase domain (JH-1)
T1 construct: contain the kinase domain (JH-1 domain) of the full length proteins and are used as GST fusion proteins
Experimental: (§1) JAK-2 or JAK-3 enzymatic activity is determined using a time-resolved fluorescence energy transfer technology. The phosphorylation of a synthetic biotinylated peptide substrate (GGEEEYFELVKKKK) by either JAK-2 or JAK-3 in the presence of ATP is quantified using Europium labeled anti phosphotyrosine antibody and Streptavidin-Allophycocyanin Both JAK-2 and JAK-3 enzymes used in these assays contain the kinase domain (JH-1 domain) of the full length proteins and are used as GST fusion proteins.
(§2) Inhibitors are dissolved in DMSO. Dilutions are prepared in 90% DMSO followed by additional dilutions steps as required to perform a 8-point concentration-response.
(§3) The reaction mix consists of 5 μL of diluted compound, 10 μl of assay buffer and 5 μl of enzyme dilution. After incubation for 60 minutes at room temperature the reaction is stopped by the addition of EDTA. For detection of the product anti-phosphotyrosine antibody and Streptavidin-APC are added and after 60 minutes the samples are measured in an EnVision 2102 Multilabel Reader with excitation wavelength of 320 nm and emission at 665 nm. […] Membranes are counted after drying at ambient temperature, mounting in Packard TopCount 96-well frame, and addition of 10 μl/well of Microscint. The plates are eventually sealed and counted in a microplate scintillation counter (TopCount NXT, TopCount NXT HTS, PerkinElmer, Brussels, Belgium).

JAK-3 = target: T2, JAK-3 (Homo sapiens, UniProt P52333); assay: JAK kinase assay (JAK-3), time-resolved fluorescence energy transfer or radiometric filter-binding/flash plate; format: biochemical; details: GST fusion of JAK-3 kinase domain (JH-1)
T2 construct: contain the kinase domain (JH-1 domain) of the full length proteins and are used as GST fusion proteins
T2 sequence (P52333 822-1111 limits assumed, species assumed): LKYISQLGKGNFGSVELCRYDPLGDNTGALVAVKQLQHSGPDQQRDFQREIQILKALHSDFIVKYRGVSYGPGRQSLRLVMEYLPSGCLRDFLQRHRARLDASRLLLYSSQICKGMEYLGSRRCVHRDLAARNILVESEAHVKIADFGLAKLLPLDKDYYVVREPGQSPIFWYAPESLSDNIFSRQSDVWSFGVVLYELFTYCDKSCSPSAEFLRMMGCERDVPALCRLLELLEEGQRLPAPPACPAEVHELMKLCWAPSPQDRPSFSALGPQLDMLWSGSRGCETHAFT
Experimental: as §1, §2, §3

T1 sequence (O60674 849-1124 limits assumed, species assumed): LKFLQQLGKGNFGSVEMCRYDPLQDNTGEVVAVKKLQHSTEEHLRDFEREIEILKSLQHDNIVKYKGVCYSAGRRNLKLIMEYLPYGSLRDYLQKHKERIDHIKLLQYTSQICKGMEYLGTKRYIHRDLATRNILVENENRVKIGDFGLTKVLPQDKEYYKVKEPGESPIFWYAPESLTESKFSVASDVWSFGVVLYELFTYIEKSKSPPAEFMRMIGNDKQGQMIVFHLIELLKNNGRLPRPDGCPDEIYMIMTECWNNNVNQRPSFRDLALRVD

Row | IC50 (JAK-2) [nM] | IC50 (JAK-3) [nM] | Compound
1 | 179 | – | CNS(=O)(=O)c1ccccc1Nc1nc(Nc2cc(OC)ccc2F)ncc1C(N)=O [Example 5, 2-(2-Fluoro-5-methoxy-phenylamino)-4-(2-methylsulfamoyl-phenylamino)-pyrimidine-5-carboxylic acid amide]
2 | – | 26 | COc1ccc(F)c(Nc2ncc(C(N)=O)c(Nc3ccccc3N(C)S(C)(=O)=O)n2)c1 [Example 6, 2-(2-Fluoro-5-methoxy-phenylamino)-4-[2-(methanesulfonyl-methyl-amino)-phenylamino]-pyrimidine-5-carboxylic acid amide]
